Test results as given in article doi:10.1101/2022.04.02.486831v1 (biorxiv, 2022).

Target: T1, PsmtLPD1 (mtLPD1; PsL) (Lathyrus oleraceus, UniProt P31023)
T1 sequence (P31023 32-501): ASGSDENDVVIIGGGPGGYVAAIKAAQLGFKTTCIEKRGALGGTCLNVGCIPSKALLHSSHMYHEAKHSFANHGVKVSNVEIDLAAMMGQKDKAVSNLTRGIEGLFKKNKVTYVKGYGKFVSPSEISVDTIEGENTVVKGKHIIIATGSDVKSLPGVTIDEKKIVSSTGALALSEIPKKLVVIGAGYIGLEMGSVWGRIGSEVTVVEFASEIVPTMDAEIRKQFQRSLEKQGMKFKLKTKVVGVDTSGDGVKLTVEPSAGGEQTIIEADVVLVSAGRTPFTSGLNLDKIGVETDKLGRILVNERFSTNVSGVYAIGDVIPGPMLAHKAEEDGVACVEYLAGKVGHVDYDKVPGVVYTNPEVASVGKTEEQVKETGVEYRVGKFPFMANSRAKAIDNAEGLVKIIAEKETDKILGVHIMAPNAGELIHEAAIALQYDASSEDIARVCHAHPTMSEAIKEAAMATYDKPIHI
Experiment: spectrophotometric at […] nm, forward direction
Type: biochemical

NC(=O)C1=CN([C@@H]2O[C@H](COP(=O)(O)OP(=O)(O)OC[C@H]3O[C@@H](n4cnc5c(N)ncnc54)[C@H](O)[C@@H]3O)[C@@H](O)[C@H]2O)C=CC1 [NADH]
Ki: ~66.1 µM
